Data set [1] concerns the target T1, human GLP-1 receptor (Homo sapiens, UniProt P43220).
T1 construct: expressed in transfected cells; host or cells: BHK cells (parent BHKTS13), clone FCW467-12A/KZ10-1, with CRE luciferase
Nature of the data set: GLP-1 receptor binding, 125I-GLP-1 displacement SPA on isolated membranes. To be noted: displacement of 125I-GLP-1 from membranes; read-out: IC50 GLP-1R. A digest of the protocol:
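Test derivatives, serially diluted, competed with 125I-GLP-1(7-36)NH2 for the human GLP-1 receptor on BHK membranes, read by WGA-bead scintillation proximity after 2 h at 30°C, pH 7.4 HEPES/EGTA/MgCl2 buffer. Final serum albumin was either ≤0.001% or 2.0%; IC50 from non-linear fit.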
For orientation: Displacement assays read how much labelled ligand stays bound in the presence of the test substance.

Data set [2] in a line: Chemical stability assessment by RP-UPLC. The class given is physicochemical. Conditions: 333 μM, 8 mM phosphate buffer pH 7.3, 37° C. vs 5° C. The method in brief: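 Purity loss = (purity after 14 days at 5° C. minus that at 37° C.) relative to the 5° C. value, purity being main-peak area % by RP-UPLC with UV at 215 nm. Samples were 333 μM in 8 mM phosphate, pH 7.3; gradient adjusted for outlying retention times.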

Results on two compounds are retold here after patent US9474790B2, “Stable, protracted GLP-1/glucagon receptor co-agonists for medical use” (Novo Nordisk A/S, priority 2013, dated 2016).

Molecules are shown by their SMILES. Numbered stars: 1 amine (or outer) side, 2 acyl side, 3 side chain; on linkers, the order of the positions; unused ones are H or OH. Square brackets hold non-standard residues; d marks the D form. Side chains are listed from the residue outwards. Peptide text beside a SMILES is read from it. * marks the point of attachment. C18 diacid = O=C(O)CCCCCCCCCCCCCCCCC(=O)*; γGlu = O=C(O)[C@H](CCC(=O)[*:2])N[*:1]; AEEA = NCCOCCOCC(=O)O; Aib = CC(C)(N)C(=O)O

T1 sequence (P43220 24-463): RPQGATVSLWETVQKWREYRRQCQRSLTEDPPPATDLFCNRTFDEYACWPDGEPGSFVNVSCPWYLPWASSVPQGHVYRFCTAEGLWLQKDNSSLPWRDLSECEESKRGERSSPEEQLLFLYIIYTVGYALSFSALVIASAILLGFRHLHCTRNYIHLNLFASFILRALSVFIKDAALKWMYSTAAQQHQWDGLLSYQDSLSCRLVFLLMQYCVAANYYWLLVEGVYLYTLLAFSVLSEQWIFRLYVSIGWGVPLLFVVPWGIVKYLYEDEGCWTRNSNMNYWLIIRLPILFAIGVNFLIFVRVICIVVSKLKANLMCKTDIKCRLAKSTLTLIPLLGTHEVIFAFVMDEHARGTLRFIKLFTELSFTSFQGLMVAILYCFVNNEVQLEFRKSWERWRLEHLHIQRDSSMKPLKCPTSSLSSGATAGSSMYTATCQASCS

One may read the IC50 as the concentration that gives 50% inhibition. As to `CC(C)C[C@H](NC(=O)[C@H](Cc1ccc(O)cc1)NC(=O)[C@H](CCCCN)NC(=O)[C@H](CO)NC(=O)[C@H](CC(C)C)NC(=O)[C@H](CC(=O)O)NC(=O)[C@H](CO)NC(=O)[C@@H](NC(=O)[C@H](Cc1ccccc1)NC(=O)[C@@H](NC(=O)CNC(=O)[C@H](Cc1c[nH]cn1)NC(=O)C(C)(C)NC(=O)[C@@H](N)Cc1c[nH]cn1)[C@@H](C)O)[C@@H](C)O)C(=O)N[C@@H](CCC(=O)O)C(=O)N[C@@H](CO)C(=O)N[C@@H](CCCCN)C(=O)N[C@@H](CCCNC(=N)N)C(=O)N[C@@H](C)C(=O)N[C@@H](CCCNC(=N)N)C(=O)N[C@@H](CCC(=O)O)C(=O)N[C@@H](Cc1ccccc1)C(=O)N[C@H](C(=O)N[C@@H](CCC(N)=O)C(=O)N[C@@H](Cc1c[nH]c2ccccc12)C(=O)N[C@@H](CC(C)C)C(=O)N[C@@H](CC(C)C)C(=O)N[C@@H](CCCCNC(=O)CC[C@H](NC(=O)CC[C@H](NC(=O)COCCOCCNC(=O)COCCOCCNC(=O)CC[C@H](NC(=O)CCCCCCCCCCCCCCCCC(=O)O)C(=O)O)C(=O)O)C(=O)O)C(=O)N[C@H](C(N)=O)[C@@H](C)O)C(C)C` [Example 27, N^ε28-[(4S)-4-carboxy-4-[[(4S)-4-carboxy-4-[[2-[2-[2-[[2-[2-[2-[[(4S)-4-carboxy-4-(17-carboxyheptadecanoylamino)butanoyl]amino]ethoxy]ethoxy]acetyl]amino]ethoxy]ethoxy]acetyl]amino]butanoyl]amino]butanoyl]-[Aib2,His3,Leu10,Glu15,Lys17,Arg20,Glu21,Leu27, Lys28]-Glucagon amide] (H-H[Aib]HGTFTSDLSKYLESKRAREFVQWLLK([γGlu-γGlu-AEEA-AEEA-γGlu-C18 diacid])T-NH2; N-terminus assumed), the IC50 in data set [1] is 0.9 nM. Also, the “Purity loss; 14 days at 37° C.” value in data set [2] turned out to be 5%.

As for `CC(C)C[C@H](NC(=O)[C@H](CC(=O)O)NC(=O)[C@H](CC(C)C)NC(=O)[C@H](Cc1ccc(O)cc1)NC(=O)[C@H](CCCCN)NC(=O)[C@H](CO)NC(=O)[C@H](CC(C)C)NC(=O)[C@H](CC(=O)O)NC(=O)[C@H](CO)NC(=O)[C@@H](NC(=O)[C@H](Cc1ccccc1)NC(=O)[C@@H](NC(=O)CNC(=O)[C@H](CCC(N)=O)NC(=O)C(C)(C)NC(=O)[C@@H](N)Cc1c[nH]cn1)[C@@H](C)O)[C@@H](C)O)C(=O)N[C@@H](CCCCN)C(=O)N[C@@H](CCCNC(=N)N)C(=O)N[C@@H](C)C(=O)N[C@@H](CCCNC(=N)N)C(=O)N[C@@H](CCC(=O)O)C(=O)N[C@@H](Cc1ccccc1)C(=O)N[C@H](C(=O)N[C@@H](CCC(N)=O)C(=O)N[C@@H](Cc1c[nH]c2ccccc12)C(=O)N[C@@H](CC(C)C)C(=O)N[C@@H](CC(C)C)C(=O)N[C@@H](CCCCNC(=O)CC[C@H](NC(=O)CC[C@H](NC(=O)COCCOCCNC(=O)COCCOCCNC(=O)CC[C@H](NC(=O)CCCCCCCCCCCCCCCCC(=O)O)C(=O)O)C(=O)O)C(=O)O)C(=O)N[C@H](C(N)=O)[C@@H](C)O)C(C)C` [Example 26, N^ε28-[(4S)-4-carboxy-4-[[(4S)-4-carboxy-4-[[2-[2-[2-[[2-[2-[2-[[(4S)-4-carboxy-4-(17-carboxyheptadecanoylamino)butanoyl]amino]ethoxy]ethoxy]-acetyl]amino]ethoxy]ethoxy]acetyl]amino]butanoyl]amino]butanoyl]-[Aib2,Leu10,Leu16,Lys17,Arg20,Glu21, Leu27,Lys28]-Glucagon amide] (H-H[Aib]QGTFTSDLSKYLDLKRAREFVQWLLK([γGlu-γGlu-AEEA-AEEA-γGlu-C18 diacid])T-NH2), the IC50 in data set [1] worked out at 0.5 nM. The “Purity loss; 14 days at 37° C.” value in data set [2] is 2%.
